{
  "source": "patent EP3463364B1",
  "about": "“PYRAZINE DERIVATIVES FOR USE IN THE TREATMENT OF DISEASES ASSOCIATED WITH CELL CYCLE DYSREGULATION” (University of Patras, priority 2016, dated 2017)",
  "key": {"[1]": {"system": "Mouse Embryonic Fibroblasts, MEFs", "experiment": "Cell cycle progression by propidium iodide flow cytometry, normal (primary) cells", "format": "cell-based", "details": "100 µM, 23hrs, compared to DMSO control (Fig. 5D vs 5C)", "description": "Since the proteins Geminin and Cdtl are key regulators of the cell cycle, the effect of the synthetic compound on the development of the cancer cell and normal cell cycle was studied. Staining of the genetic material of the cells was performed with propidium iodide and the technique of flow cytometry was applied for their separation, based on the amount of genetic material.\nMCF7 cells were used as cancer cells, whereas primary cells and particularly embryonic mouse fibroblasts (Mouse Embryonic Fibroblasts, MEFs) were used as normal cells. The cells were incubated with the synthetic chemical compound AF-615/30368009 at a concentration of 100 µM and cultured for 23hrs in 100-mm dishes, to 80% confluency. Cells which had been incubated with only DMSO were used as a negative control sample. The next day of the incubation, cells were harvested using trypsin. […] The experiments were conducted using a Becton Dickinson flow cytometer and the data were analyzed by the WinMDi software version 2.8. […]\nThe graphs shown in Fig. 5 are representative of at least two independent experiments. The x axis represents the intensity of the fluorescence of propidium iodide and proportionally the amount of DNA content of the cells, while the y-axis corresponds to the number of events for each phase of the cell cycle."}, "[2]": {"target": "T1, Geminin (Homo sapiens, UniProt O75496)", "T1 construct": "the full length human Geminin ortholog was used; expressed in transfected cells; host or cells: MCF7", "T1 sequence (O75496 1-209)": "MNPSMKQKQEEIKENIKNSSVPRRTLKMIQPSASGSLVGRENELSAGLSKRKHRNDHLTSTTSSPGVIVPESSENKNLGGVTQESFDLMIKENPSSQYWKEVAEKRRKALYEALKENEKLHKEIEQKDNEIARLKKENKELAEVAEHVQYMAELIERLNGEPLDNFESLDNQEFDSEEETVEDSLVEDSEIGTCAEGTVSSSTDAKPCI", "experiment": "Intracellular localization of exogenous Geminin-GFP in co-transfected MCF7 cells (fluorescence microscopy)", "format": "cell-based", "details": "100µM, 24-hour incubation", "excerpt": "A cellular assay was developed and applied using epithelial cells of breast adenocarcinoma (MCF7), for the purpose of the ex vivo study of the mechanism by which the inhibitory effect of the synthetic chemical compound affects the functional significance of the Geminin-Cdtl protein interaction.\nTherefore, in order to determine the mechanism of action of the synthetic chemical compound AF-615/30368009, its effect on the Geminin nucleo-cytoplasmic translocation was studied ex vivo.\nFor the purposes of this experiment, the full length human Geminin ortholog was used as well as the protein Cdt1^DEL which corresponds to the human ortholog which lacks the amino acid residues 170-190. […]\nFor the implementation of the cellular assay, an appropriate number of cells were seeded onto glass coverslips and cells were allowed to culture in order to adhere. […] Then, the coverslips were washed with 1x PBS buffer (2 times), mounted on microscope slides using mounting medium containing the dye DAPI (that stains only nuclei) and were observed under a fluorescence microscope. […]\nThe experimental design included the transient co-transfection of MCF7 cancer cells with Geminin-GFP & dhcRed and Geminin-GFP & Cdt1^DEL-dhcRed. […] The intracellular localization of Geminin was detected by the autofluorescence of the GFP molecule. […]"}},
  "data": [
    {"smiles": "O=C(NNC(=S)N1CCOCC1)c1cnccn1", "note": "[AF-615/30368009, N'-(morpholine-4-carbothioyl)pyrazine-2-carbohydrazide]", "values": [
      {"measurement": "percentage of cells in G2/M phase", "setting": "[1]", "result": "mild reduction"},
      {"measurement": "percentage of cells in phase G0/G1 and S", "setting": "[1]", "result": "no significant change"},
      {"measurement": "intracellular localization of Geminin", "setting": "[2]; MCF7, co-transfection with Geminin-GFP & Cdt1^DEL-dhcRed (Fig. 4)", "result": "no detectable change"},
      {"measurement": "percentage of cells with nuclear localization of Geminin", "setting": "[2]; MCF7, co-transfection with Geminin-GFP & dhcRed (Fig. 4)", "result": "statistically significant increase"}
    ]}
  ]
}
